From the NIST ThermoML archive (doi:10.1016/j.tca.2010.11.002)

Legend:
[1] = mn = molality of the nth substance listed, in mol/kg; details: 101 kPa, Liquid, Vibrating tube method
[2] = 101 kPa, Liquid, Vibrating tube method

[2H]O[2H] [water-d2] + CN1CCCN(C)C1=O
[1], m2 = 0
Details | mass density [kg/m3]
278.15 K | 1105.59
288.15 K | 1105.85
298.15 K | 1104.43
308.15 K | 1101.72
313.15 K | 1099.93
318.15 K | 1097.92

[2H]O[2H] [water-d2]
[2]
Details | mass density [kg/m3]
278.15 K | 1105.59
288.15 K | 1105.85
298.15 K | 1104.43
308.15 K | 1101.72
313.15 K | 1099.93
318.15 K | 1097.92

CN1CCCN(C)C1=O [1,3-dimethyl-3,4,5,6-tetrahydro-2(1H)-pyrimidinone] + [2H]O[2H]
mass density [kg/m3], [1]
Details | 278.15 K | 288.15 K | 298.15 K | 308.15 K | 313.15 K | 318.15 K
m1 = 0.0599 | 1105.6 | 1105.78 | 1104.3 | 1101.53 | 1099.72 | 1097.69
m1 = 0.08344 | 1105.61 | 1105.76 | 1104.25 | 1101.47 | 1099.64 | 1097.6
m1 = 0.1212 | 1105.63 | 1105.73 | 1104.18 | 1101.36 | 1099.52 | 1097.47
m1 = 0.1641 | 1105.66 | 1105.71 | 1104.11 | 1101.25 | 1099.39 | 1097.32
m1 = 0.2214 | 1105.72 | 1105.69 | 1104.03 | 1101.11 | 1099.23 | 1097.13
m1 = 0.3291 | 1105.85 | 1105.68 | 1103.9 | 1100.88 | 1098.96 | 1096.82
m1 = 0.5024 | 1106.17 | 1105.76 | 1103.77 | 1100.59 | 1098.6 | 1096.39
m1 = 0.6557 | 1106.53 | 1105.89 | 1103.73 | 1100.4 | 1098.34 | 1096.07
m1 = 0.7789 | 1106.85 | 1106.03 | 1103.73 | 1100.28 | 1098.17 | 1095.85
m1 = 0.9405 | 1107.31 | 1106.25 | 1103.76 | 1100.16 | 1097.99 | 1095.61
m1 = 1.074 | 1107.69 | 1106.44 | 1103.81 | 1100.09 | 1097.86 | 1095.43
